This is an account of results in PMC4076210, “Discovery of Novel AKT Inhibitors with Enhanced Anti-Tumor Effects in Combination with the MEK Inhibitor” (PLoS ONE, 2014).

Like-named read-outs stand apart in the source and are kept apart here.

Common to all, as to assay type: biochemical
One experiment addresses T1, Abl(m) (Mus musculus, UniProt P00520).
T1 construct: purchased Millipore KinaseProfiler
In words: Kinase panel.

The target of another experiment is PKCι (Homo sapiens, UniProt P41743). In words: Kinase IC50 assay.
The target of a further experiment is T2, MKK4(m) (Mus musculus, UniProt P47809).
T2 construct: purchased Millipore KinaseProfiler
T2 sequence (P47809 2-397 limits assumed): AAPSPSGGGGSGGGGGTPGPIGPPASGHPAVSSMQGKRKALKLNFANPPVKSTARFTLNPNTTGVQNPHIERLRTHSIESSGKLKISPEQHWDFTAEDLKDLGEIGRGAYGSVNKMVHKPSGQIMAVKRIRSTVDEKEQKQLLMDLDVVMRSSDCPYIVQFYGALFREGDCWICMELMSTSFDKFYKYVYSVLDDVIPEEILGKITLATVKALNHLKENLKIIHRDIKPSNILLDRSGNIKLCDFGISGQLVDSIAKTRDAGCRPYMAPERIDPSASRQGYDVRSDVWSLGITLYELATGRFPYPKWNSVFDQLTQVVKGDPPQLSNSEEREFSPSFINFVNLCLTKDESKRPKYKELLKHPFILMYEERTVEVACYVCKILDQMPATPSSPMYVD
In words: Kinase panel.

For the next experiment, the target named is T3, HIPK1(h) (Homo sapiens, UniProt Q86Z02).
T3 construct: purchased Millipore KinaseProfiler
Kind of experiment: Kinase panel.

Another experiment deals with T4, ARK5(h) (Homo sapiens, UniProt O60285).
T4 construct: purchased Millipore KinaseProfiler
T4 sequence (O60285 1-661): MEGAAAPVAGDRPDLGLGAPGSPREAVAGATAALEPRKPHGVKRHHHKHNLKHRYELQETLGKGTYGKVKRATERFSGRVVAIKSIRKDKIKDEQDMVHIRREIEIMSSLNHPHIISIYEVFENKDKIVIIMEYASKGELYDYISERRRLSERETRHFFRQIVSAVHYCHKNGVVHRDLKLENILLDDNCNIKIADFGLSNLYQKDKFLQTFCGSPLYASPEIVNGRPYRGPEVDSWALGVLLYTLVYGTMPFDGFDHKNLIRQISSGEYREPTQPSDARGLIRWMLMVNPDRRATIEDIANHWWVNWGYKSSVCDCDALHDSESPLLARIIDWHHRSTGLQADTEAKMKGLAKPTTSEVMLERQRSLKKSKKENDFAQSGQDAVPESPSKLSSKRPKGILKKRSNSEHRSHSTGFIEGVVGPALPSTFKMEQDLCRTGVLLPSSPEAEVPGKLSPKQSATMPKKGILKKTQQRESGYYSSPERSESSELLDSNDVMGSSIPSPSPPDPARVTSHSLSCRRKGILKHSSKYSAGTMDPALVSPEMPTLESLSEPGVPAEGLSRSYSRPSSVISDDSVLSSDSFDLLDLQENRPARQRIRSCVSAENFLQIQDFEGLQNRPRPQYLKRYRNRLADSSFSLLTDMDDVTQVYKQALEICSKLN
In words: Kinase panel.

For the next experiment, the target named is T5, ZAP-70(h) (Homo sapiens, UniProt P43403).
T5 construct: purchased Millipore KinaseProfiler
T5 sequence (P43403 1-619): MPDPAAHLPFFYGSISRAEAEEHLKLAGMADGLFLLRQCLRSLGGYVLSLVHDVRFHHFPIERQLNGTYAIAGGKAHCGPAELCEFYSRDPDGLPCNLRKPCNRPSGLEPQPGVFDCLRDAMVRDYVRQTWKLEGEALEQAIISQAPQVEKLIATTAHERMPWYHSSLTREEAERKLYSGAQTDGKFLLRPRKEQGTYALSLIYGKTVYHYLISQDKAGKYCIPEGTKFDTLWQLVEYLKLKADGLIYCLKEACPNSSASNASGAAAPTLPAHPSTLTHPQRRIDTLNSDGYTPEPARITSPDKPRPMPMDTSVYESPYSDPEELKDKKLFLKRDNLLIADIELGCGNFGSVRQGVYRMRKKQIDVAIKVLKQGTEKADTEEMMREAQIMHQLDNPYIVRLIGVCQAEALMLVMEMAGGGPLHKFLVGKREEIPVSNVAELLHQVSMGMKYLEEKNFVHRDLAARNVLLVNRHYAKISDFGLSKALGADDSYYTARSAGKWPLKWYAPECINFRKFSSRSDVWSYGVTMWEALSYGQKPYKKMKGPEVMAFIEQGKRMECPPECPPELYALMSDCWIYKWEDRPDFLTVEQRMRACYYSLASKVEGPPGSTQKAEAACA
In words: Kinase panel.

The target of a further experiment is T6, NEK7(h) (Homo sapiens, UniProt Q8TDX7).
T6 construct: purchased Millipore KinaseProfiler
Kind of experiment: Kinase panel.

Another experiment deals with T7, CDK5/p25(h) (Homo sapiens, UniProt Q00535).
T7 construct: purchased Millipore KinaseProfiler
Kind of experiment: Kinase panel.

For a further experiment, the target named is PKG1β (Homo sapiens, UniProt Q13976). In words: Kinase IC50 assay.
The next experiment has as its target T8, PKCι(h) (Homo sapiens, UniProt P41743).
T8 construct: purchased Millipore KinaseProfiler
T8 sequence (P41743 1-596): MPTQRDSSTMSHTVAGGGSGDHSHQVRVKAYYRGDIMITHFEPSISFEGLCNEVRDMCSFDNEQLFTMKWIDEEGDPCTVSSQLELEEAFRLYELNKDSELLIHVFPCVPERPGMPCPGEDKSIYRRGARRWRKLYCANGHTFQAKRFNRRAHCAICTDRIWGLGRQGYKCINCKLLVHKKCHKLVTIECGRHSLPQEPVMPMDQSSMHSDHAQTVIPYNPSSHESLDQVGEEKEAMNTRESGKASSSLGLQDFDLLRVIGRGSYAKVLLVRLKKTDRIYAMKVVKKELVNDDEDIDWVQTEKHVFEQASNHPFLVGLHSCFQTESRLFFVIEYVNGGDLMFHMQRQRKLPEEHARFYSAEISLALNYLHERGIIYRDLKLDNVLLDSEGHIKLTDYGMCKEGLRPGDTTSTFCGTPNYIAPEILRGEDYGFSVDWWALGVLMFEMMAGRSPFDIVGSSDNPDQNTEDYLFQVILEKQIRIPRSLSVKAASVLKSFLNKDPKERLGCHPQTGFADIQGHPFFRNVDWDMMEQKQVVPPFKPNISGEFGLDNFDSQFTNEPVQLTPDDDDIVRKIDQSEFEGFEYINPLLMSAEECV
Kind of experiment: Kinase panel.

For the next experiment, the target named is T9, PRK2(h) (Homo sapiens, UniProt Q16513).
T9 construct: purchased Millipore KinaseProfiler
In words: Kinase panel.

The target of the next experiment is T10, PASK(h) (Homo sapiens, UniProt Q96RG2).
T10 construct: purchased Millipore KinaseProfiler
Kind of experiment: Kinase panel.

T3 sequence (Q86Z02 whole entry): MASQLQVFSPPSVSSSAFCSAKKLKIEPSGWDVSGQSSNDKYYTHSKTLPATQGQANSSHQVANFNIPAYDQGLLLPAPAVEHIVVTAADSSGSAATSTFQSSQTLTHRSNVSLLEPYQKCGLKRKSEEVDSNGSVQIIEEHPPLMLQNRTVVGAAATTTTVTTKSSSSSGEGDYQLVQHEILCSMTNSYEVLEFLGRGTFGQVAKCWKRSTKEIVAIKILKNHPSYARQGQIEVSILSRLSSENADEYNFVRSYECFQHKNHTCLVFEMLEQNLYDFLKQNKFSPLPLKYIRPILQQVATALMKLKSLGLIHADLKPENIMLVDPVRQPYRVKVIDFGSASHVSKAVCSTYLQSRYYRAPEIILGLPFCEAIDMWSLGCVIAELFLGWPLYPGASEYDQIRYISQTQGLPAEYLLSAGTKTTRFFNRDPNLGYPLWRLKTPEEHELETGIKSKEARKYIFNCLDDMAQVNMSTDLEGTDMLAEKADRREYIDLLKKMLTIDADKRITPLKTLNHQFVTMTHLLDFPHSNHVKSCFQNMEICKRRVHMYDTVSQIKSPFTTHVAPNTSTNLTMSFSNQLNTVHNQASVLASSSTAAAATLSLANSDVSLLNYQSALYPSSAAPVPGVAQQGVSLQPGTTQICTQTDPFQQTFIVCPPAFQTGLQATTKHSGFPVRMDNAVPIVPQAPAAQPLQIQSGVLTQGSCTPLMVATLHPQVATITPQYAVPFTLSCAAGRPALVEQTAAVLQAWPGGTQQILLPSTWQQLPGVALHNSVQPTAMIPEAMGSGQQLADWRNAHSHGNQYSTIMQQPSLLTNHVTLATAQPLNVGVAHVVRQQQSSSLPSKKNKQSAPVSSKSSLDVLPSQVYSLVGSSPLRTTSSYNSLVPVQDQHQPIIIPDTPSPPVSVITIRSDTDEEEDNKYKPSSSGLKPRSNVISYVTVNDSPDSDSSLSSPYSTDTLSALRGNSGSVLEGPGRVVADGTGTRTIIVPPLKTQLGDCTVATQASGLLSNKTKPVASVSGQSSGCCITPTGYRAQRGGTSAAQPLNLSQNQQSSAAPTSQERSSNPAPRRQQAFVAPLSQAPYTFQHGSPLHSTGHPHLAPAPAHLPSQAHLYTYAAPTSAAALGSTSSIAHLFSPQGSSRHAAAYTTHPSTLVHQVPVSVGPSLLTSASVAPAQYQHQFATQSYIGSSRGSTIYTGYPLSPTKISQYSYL
T9 sequence (Q16513 whole entry): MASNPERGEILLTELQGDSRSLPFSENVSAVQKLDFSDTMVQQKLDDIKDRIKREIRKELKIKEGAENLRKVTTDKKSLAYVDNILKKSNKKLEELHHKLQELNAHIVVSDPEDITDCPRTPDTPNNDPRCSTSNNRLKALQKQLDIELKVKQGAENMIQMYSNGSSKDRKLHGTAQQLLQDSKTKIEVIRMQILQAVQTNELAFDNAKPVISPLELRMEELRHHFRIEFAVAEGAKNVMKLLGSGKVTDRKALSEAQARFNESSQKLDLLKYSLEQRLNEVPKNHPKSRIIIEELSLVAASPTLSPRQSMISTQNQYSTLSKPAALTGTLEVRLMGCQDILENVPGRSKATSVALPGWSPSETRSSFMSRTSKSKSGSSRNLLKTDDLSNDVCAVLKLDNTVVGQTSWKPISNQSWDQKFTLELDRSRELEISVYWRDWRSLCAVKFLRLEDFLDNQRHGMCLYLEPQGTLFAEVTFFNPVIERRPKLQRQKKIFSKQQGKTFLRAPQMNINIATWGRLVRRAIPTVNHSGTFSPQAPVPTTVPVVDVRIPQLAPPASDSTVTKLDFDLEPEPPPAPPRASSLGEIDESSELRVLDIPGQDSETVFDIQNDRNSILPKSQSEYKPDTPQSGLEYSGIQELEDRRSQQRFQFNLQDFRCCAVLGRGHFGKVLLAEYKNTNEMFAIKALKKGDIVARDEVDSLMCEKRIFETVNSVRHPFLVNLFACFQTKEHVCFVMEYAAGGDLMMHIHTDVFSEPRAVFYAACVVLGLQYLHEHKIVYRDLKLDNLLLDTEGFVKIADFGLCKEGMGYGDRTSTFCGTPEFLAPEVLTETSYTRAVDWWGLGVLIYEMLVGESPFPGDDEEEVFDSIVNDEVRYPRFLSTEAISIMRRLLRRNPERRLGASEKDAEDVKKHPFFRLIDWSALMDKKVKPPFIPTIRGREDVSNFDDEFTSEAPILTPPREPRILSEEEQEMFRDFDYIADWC
T10 sequence (Q96RG2 whole entry): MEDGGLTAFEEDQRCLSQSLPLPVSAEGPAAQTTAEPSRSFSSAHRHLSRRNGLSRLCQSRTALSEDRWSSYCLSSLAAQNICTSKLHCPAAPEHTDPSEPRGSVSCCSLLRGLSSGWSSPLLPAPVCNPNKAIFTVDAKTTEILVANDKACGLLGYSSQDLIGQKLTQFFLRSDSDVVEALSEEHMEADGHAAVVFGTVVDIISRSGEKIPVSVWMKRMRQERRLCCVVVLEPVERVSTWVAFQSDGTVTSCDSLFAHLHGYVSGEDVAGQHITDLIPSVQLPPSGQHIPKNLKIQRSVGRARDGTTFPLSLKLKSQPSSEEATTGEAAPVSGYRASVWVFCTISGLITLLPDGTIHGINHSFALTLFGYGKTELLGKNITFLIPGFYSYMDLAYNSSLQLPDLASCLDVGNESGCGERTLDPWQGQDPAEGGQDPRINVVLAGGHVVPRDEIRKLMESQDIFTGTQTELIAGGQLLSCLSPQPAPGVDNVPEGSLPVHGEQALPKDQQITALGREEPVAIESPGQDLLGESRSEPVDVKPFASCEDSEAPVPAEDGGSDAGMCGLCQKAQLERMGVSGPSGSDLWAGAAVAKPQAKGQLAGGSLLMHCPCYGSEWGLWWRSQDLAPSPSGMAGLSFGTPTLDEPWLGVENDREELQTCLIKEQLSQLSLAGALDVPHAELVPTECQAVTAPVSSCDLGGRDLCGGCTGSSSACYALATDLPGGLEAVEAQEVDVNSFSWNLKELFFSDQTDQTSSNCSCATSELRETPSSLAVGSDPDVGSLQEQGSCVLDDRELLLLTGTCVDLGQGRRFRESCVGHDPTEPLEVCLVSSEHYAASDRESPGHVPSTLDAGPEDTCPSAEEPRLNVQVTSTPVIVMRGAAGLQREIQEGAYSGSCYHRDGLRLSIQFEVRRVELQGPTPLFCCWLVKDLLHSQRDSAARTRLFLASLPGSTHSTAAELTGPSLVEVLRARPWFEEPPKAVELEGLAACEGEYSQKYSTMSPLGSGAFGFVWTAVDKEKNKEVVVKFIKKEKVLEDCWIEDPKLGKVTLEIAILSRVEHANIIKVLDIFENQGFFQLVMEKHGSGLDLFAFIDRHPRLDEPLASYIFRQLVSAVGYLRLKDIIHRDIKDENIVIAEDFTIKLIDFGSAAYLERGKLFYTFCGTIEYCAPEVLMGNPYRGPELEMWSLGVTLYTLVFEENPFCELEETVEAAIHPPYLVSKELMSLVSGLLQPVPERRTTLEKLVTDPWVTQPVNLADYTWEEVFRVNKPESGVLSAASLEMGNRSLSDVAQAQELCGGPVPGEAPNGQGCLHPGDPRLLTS
T1 sequence (P00520 27-1123 limits assumed): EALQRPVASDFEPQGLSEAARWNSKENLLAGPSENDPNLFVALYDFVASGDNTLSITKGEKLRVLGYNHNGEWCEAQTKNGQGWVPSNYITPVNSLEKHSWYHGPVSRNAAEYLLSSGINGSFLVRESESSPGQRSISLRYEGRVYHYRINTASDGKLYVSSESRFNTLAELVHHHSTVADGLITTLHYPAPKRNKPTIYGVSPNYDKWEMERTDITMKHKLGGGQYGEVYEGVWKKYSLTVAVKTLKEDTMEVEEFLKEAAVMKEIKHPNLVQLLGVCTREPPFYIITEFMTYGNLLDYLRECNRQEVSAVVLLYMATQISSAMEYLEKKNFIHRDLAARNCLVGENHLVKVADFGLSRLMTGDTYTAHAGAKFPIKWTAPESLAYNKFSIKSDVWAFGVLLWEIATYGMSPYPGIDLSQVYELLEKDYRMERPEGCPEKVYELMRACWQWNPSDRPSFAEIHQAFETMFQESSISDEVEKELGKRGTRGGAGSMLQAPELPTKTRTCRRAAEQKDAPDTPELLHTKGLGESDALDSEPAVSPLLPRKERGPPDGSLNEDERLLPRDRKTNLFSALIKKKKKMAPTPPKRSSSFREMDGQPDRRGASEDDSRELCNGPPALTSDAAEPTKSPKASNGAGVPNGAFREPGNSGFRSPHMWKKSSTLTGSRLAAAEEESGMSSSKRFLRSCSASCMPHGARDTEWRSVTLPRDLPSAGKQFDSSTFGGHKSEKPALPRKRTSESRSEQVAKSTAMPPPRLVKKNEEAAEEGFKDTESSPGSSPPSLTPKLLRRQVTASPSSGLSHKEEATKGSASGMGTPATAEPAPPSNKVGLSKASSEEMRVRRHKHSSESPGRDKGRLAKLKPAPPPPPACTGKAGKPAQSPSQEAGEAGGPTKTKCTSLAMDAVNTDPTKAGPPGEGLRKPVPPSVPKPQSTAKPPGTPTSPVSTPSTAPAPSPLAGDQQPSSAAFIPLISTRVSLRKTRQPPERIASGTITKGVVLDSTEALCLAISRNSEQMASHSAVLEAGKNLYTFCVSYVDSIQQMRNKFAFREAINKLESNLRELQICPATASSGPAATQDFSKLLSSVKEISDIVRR
T6 sequence (Q8TDX7 whole entry): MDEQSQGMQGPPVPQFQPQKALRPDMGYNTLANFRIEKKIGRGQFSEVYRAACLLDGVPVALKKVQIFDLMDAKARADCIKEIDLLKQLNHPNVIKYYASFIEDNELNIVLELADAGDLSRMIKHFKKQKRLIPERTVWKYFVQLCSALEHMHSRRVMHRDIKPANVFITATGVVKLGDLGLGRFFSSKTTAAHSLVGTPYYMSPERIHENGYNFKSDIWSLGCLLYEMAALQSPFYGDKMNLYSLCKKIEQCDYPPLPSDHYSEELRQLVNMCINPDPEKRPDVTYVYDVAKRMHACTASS

Broadly, the inhibition is the relative decrease from the control value, in per cent. One may read the IC50 as the concentration that inhibits the measured activity by half. With `Cn1ncc(Cl)c1-c1cc(C(=O)N[C@H](CN)Cc2cccc(F)c2)sc1Cl` [GSK2110183], the inhibition at 0.5 µM was 8% on Abl(m); 25% against MKK4(m); 9% on HIPK1(h); -6% at ARK5(h); 8% against ZAP-70(h); -8% on NEK7(h). Further, the inhibition at 0.5 µM is -4% against CDK5/p25(h), 1% against PKCι(h), 71% against PRK2(h) and 4% against PASK(h). The inhibition at 10 µM on Abl(m) was -5%; against MKK4(m) it was 57%; against HIPK1(h), 72%; against ARK5(h), 9%; at ZAP-70(h), -2%; against NEK7(h), -12%. In addition, the inhibition at 10 µM is 28% against CDK5/p25(h), 50% on PKCι(h), 99% on PRK2(h) and 45% on PASK(h). The values for the IC50 at PKCι and against PKG1β were more than 1000 nM and 4 nM, respectively.

`Cn1ncc(Cl)c1-c1cc(C(=O)N[C@H](CN)Cc2ccc(F)c(F)c2)oc1Cl` [GSK2141795]: the inhibition at 0.5 µM is 1% on Abl(m) (0.5 µM, read-out: % Inhibition); 8% at MKK4(m) (0.5 µM, read-out: % Inhibition); 2% at HIPK1(h) (0.5 µM, read-out: % Inhibition); -5% at ARK5(h) (0.5 µM, read-out: % Inhibition); -23% at ZAP-70(h) (0.5 µM, read-out: % Inhibition); -9% at NEK7(h) (0.5 µM, read-out: % Inhibition). Moreover, the inhibition at 0.5 µM on CDK5/p25(h) (0.5 µM, read-out: % Inhibition) is -8%; at PKCι(h) (0.5 µM, read-out: % Inhibition), 0%; at PRK2(h) (0.5 µM, read-out: % Inhibition) it was 81%; at PASK(h) (0.5 µM, read-out: % Inhibition), 11%. Besides, the inhibition at 10 µM at Abl(m) (10 µM, read-out: % Inhibition) is 7%; at MKK4(m) (10 µM, read-out: % Inhibition) it was 36%; on HIPK1(h) (10 µM, read-out: % Inhibition) it was 62%; at ARK5(h) (10 µM, read-out: % Inhibition), 18%; on ZAP-70(h) (10 µM, read-out: % Inhibition) it was -24%; on NEK7(h) (10 µM, read-out: % Inhibition) it was -32%. In addition, the inhibition at 10 µM on CDK5/p25(h) (10 µM, read-out: % Inhibition) turned out to be 37%; at PKCι(h) (10 µM, read-out: % Inhibition), 43%; at PRK2(h) (10 µM, read-out: % Inhibition) it was 96%; at PASK(h) (10 µM, read-out: % Inhibition), 49%. Also, the IC50 on PKCι is more than 1000 nM; at PKG1β it was less than 1 nM.
